Legend:
[1] = tested on: bacteria of the Burkholderia cepacia complex; experiment: Sensitivity test (MIC/MBC by agar dilution and broth dilution) on a Burkholderia strain panel; format: cell-based
Experimental: The minimum inhibitory concentration (MIC) and the minimum bactericidal concentration (MBC) of compounds of formula (I) of the invention, in particular EZ, were determined by standardized agar dilution and broth dilution tests, described by Rushton et al. Key role for efflux in the preservative susceptibility and adaptive resistance of Burkholderia cepacia complex bacteria. Antimicrobial Agents and Chemotherapy, 2013. 57(7): p. 2972-2980 using TSA/TSB. The culture was carried out at 30° C. in order to be representative of the production and storage of industrial products. Preserving stock solutions (50% w/v) were prepared in DMSO (Sigma-Aldrich, United Kingdom) and volumes were added to the medium so as to achieve the test concentration. The final concentration of DMSO in the presence of the bacterium was verified to be non-toxic (not exceeding 4% v/v) and was included as control condition in the tests in order to eliminate the effect on growth. […] The efficacy and toxicity of the neutralizing solution were evaluated before the experiment, as described in the scientific publication by Lear, J. C., et al. (J. C., et al., Chloroxylenol- and triclosan-tolerant bacteria from industrial sources—Susceptibility to antibiotics and other biocides. International Biodeterioration and Biodegradation, 2006. 57(1): p. 51-56). […]

[2] = tested on: bacteria of the Burkholderia cepacia complex; experiment: Reduction in viability of Bcc bacteria (preservative activity); format: cell-based; conditions: in 4 hours
[3] = tested on: bacteria of the Bcc complex; conditions: levels used in industry; cited from earlier work

Row | Compound | inhibitory activity with respect to bacteria of the Burkholderia cepacia complex [1] | efficacy against a diversified panel of 57 Burkholderia strains ([1]; strains representing species commonly encountered as contaminants, culture at 30° C.) | reduction in viability [2] [log] | efficacy with respect to contamination by bacteria of the Bcc complex [3]
1 | CCOc1cc(CCC(C)=O)ccc1O [EZ, 4-(3-ethoxy-4-hydroxyphenyl)butan-2-one] | very significant inhibitory activity | excellent efficacy | 6 | 
2 | O=C([O-])c1ccccc1.[Na+] [sodium benzoate] |  |  |  | ineffective

— patent US20230037103A1, “USE OF A COMPOUND OF 4-(3-ETHOXY-4-HYDROXYPHENYL) ALKYL KETONE TYPE AGAINST BACTERIA OF THE BURKHOLDERIA CEPACIA COMPLEX” (L’OREAL, priority 2019, published 2023)
